# From patent publication US11485701B2, “Insect repellent compounds and compositions, and methods thereof” (Iowa State University Research Foundation, Inc., priority 2016, dated 2022)
# Where two headings read alike, the source gives them in different places.
# System: Northern house mosquitoes (Culex pipiens)
# Test: Long-term spatial repellency, static air repellency chamber, filter papers air-dried 5 hours
# Assay type: in vivo
# Details: Culex pipiens, 1 mL of 0.5% solution in acetone, air-dried 5 hours
# In short: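 Adult female Culex pipiens, 5–7 days post-emergence, held at 27 °C, 80% RH and 16:8 light:dark, about 20 per replicate in a 9 × 60 cm glass static-air chamber. Filter paper treated with 0.5% compound in acetone and air-dried 5 h is placed at one end; acetone-only papers are the control. Percentage spatial repellency is scored from mosquito distribution at 15–150 min, 4 replicates.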
smiles,measurement,setting,value
"CC(C)=CCCC(C)CC(=O)OCC(C)O (stereo not drawn) [Compound 2144, 2-hydroxypropyl citronellate]",pest or weed control at 0.5 %,"0.25 h, 15 min, read-out: Long-term Percentage repellency 15 min",12.5%
same,pest or weed control at 0.5 %,"1.5 h, 90 min, read-out: Long-term Percentage repellency 90 min",20%
same,pest or weed control at 0.5 %,"2.5 h, 150 min, read-out: Long-term Percentage repellency 150 min",35%
